{"source": "paper PMC4757794", "about": "(2016)", "key": {"[1]": {"test_system": "CC mismatched DNA (ITC) (DNA, mismatch bulge abasic) GCGCCGTCGTCCATGTG/CACATGCACGACGGCGC", "assay": "ITC"}, "[2]": {"test_system": "hairpin matched DNA (DNA, hairpin) GGCAGGCATGGCTTTTTGCCATGCCTGCC", "assay": "emission titration"}, "[3]": {"test_system": "matched DNA (ITC) (DNA, duplex) GCGCCGTCGTCCATGTG/CACATGGACGACGGCGC", "assay": "ITC"}, "[4]": {"test_system": "hairpin DNA oligomer with a CC mismatch (DNA, mismatch bulge abasic) GGCAGGCATGGCTTTTTGCCATCCCTGCC", "assay": "emission titration"}, "[5]": {"test_system": "DNA without an abasic site (melting temperature experiment) (DNA, duplex) GACCAGCTTATCATCCCTAGATAAGCG/CGCTTATCTAGGGATGATAAGCTGGTC", "assay": "melting temperature", "conditions": "Tm stated not affected"}, "[6]": {"test_system": "27-mer abasic dsDNA AP_G (DNA, mismatch bulge abasic, abasic at 13 of strand 2) GACCAGCTTATCATGCCTAGATAAGCG/CGCTTATCTAGGNATGATAAGCTGGTC", "assay": "emission titration", "conditions": "50 mM NaCl; 2 mM Tris, pH 7.5; 5 μM 1c; 14.4-fold emission increase"}, "[7]": {"test_system": "27-mer abasic dsDNA AP_T (DNA, mismatch bulge abasic, abasic at 13 of strand 2) GACCAGCTTATCATTCCTAGATAAGCG/CGCTTATCTAGGNATGATAAGCTGGTC", "assay": "emission titration", "conditions": "50 mM NaCl; 2 mM Tris, pH 7.5; 5 μM 1c; 21.1-fold emission increase"}, "[8]": {"test_system": "CC mismatched 17-mer dsDNA (DNA, mismatch bulge abasic) GCGCCGTCGTCCATGTG/CACATGCACGACGGCGC", "assay": "emission titration", "conditions": "50 mM NaCl; 2 mM Tris, pH 7.5; 27.5-fold emission increase"}, "[9]": {"test_system": "matched 17-mer dsDNA (DNA, duplex) GCGCCGTCGTCCATGTG/CACATGGACGACGGCGC", "assay": "emission titration", "conditions": "50 mM NaCl; 2 mM Tris, pH 7.5; 2.8-fold emission increase"}, "[10]": {"test_system": "normal (matched) 27-mer dsDNA (DNA, duplex) GACCAGCTTATCATCCCTAGATAAGCG/CGCTTATCTAGGGATGATAAGCTGGTC", "assay": "emission titration", "conditions": "50 mM NaCl; 2 mM Tris, pH 7.5; 5 μM 1c; 4.7-fold emission increase"}, "[11]": {"test_system": "27-mer abasic dsDNA AP_C (DNA, mismatch bulge abasic, abasic at 13 of strand 2) GACCAGCTTATCATCCCTAGATAAGCG/CGCTTATCTAGGNATGATAAGCTGGTC", "assay": "emission titration", "conditions": "50 mM NaCl; 2 mM Tris, pH 7.5; 5 μM 1c; 32.2-fold emission increase"}, "[12]": {"test_system": "self-complementary CC mismatched DNA 5′-C1G2G3A4C5T6C7C8G9-3′ (DNA, mismatch bulge abasic) CGGACTCCG", "assay": "1H NMR, NOESY, TOCSY titration", "conditions": "20 mM NaCl, 50 mM sodium phosphate; D2O, pH 6.1, 10 °C; shifts at A4 and C5, mismatched site"}, "[13]": {"test_system": "27-mer dsDNA with CC mismatch (DNA, mismatch bulge abasic) GACCAGCTTATCATCCCTAGATAAGCG/CGCTTATCTAGGCATGATAAGCTGGTC", "assay": "emission titration", "conditions": "50 mM NaCl; 2 mM Tris, pH 7.5; 5 μM 1c; comparison DNA of abasic titration"}, "[14]": {"test_system": "27-mer abasic dsDNA AP_A (DNA, mismatch bulge abasic, abasic at 13 of strand 2) GACCAGCTTATCATACCTAGATAAGCG/CGCTTATCTAGGNATGATAAGCTGGTC", "assay": "emission titration", "conditions": "50 mM NaCl; 2 mM Tris, pH 7.5; 5 μM 1c; 14.8-fold emission increase"}, "[15]": {"conditions": "50 mM NaCl, 2 mM Tris, pH 7.5, 0.1 mM complex titrated with 0.75 mM DNA"}}}
{"smiles": "CC[n+]1c(-c2ccccc2)c2cc(N)ccc2c2ccc(N)cc21", "values": [{"measurement": "Kd", "setting": "[1]; Na+ 50 mM (Tris 2 mM buffer)", "value": "1.32 ± 0.24", "unit": "µM"}, {"measurement": "binding", "setting": "[2]; 14.1-fold emission increase", "value": "yes"}, {"measurement": "Kd", "setting": "[3]; Na+ 50 mM (Tris 2 mM buffer)", "value": "1.60 ± 0.28", "unit": "µM"}, {"measurement": "binding", "setting": "[4]; 12.7-fold emission increase", "value": "yes"}]}
{"smiles": "C1CCC(P(CP(C2CCCCC2)C2CCCCC2)C2CCCCC2)CC1.[Pt+2].[Pt+2].[c-]1ccccc1-c1cccc(-c2ccccn2)n1.[c-]1ccccc1-c1cccc(-c2ccccn2)n1", "values": [{"measurement": "binding", "setting": "[5]", "value": "no"}, {"measurement": "Kd", "setting": "[1]; [15]", "value": "7.0 ± 2.1", "unit": "µM"}, {"measurement": "binding", "setting": "[2]; 50 mM NaCl, 2 mM Tris, pH 7.5, 5 μM 2, 8.2-fold emission increase at 0.5 equivalents", "value": "weak"}, {"measurement": "binding", "setting": "[3]; 50 mM NaCl, 2 mM Tris, pH 7.5, 0.1 mM complex titrated with 0.75 mM DNA, Kd stated negligible", "value": "no"}, {"measurement": "binding", "setting": "[4]; 50 mM NaCl, 2 mM Tris, pH 7.5, 5 μM 2, 50-fold emission increase at 0.5 equivalents", "value": "yes"}]}
{"smiles": "CN1[C]N(C)C=C1.[Pt+2].[c-]1ccccc1-c1cccc(-c2ccccn2)n1", "values": [{"measurement": "Kd", "setting": "[1]; [15]", "value": "66.2 ± 15.7", "unit": "µM"}, {"measurement": "binding", "setting": "[2]; 7.1-fold emission increase", "value": "yes"}, {"measurement": "Kd", "setting": "[3]; [15]", "value": "56.4 ± 13.6", "unit": "µM"}, {"measurement": "binding", "setting": "[4]; 8.5-fold emission increase", "value": "yes"}]}
{"smiles": "CCCCN1[C]N(Cc2ccccc2)C=C1.[Pt+2].[c-]1ccccc1-c1cccc(-c2ccccn2)n1", "values": [{"measurement": "binding", "setting": "[6]", "value": "yes"}, {"measurement": "binding", "setting": "[7]", "value": "yes"}, {"measurement": "binding", "setting": "[8]", "value": "yes"}, {"measurement": "binding", "setting": "[9]", "value": "weak"}, {"measurement": "binding", "setting": "[10]", "value": "weak"}, {"measurement": "binding", "setting": "[11]", "value": "yes"}, {"measurement": "Kd", "setting": "[1]; [15]", "value": "51.5 ± 8.0", "unit": "µM"}, {"measurement": "binding", "setting": "[2]; 50 mM NaCl, 2 mM Tris, pH 7.5, 5 μM 1c, 2.6-fold emission increase at 1 equivalent", "value": "weak"}, {"measurement": "binding", "setting": "[12]", "value": "yes"}, {"measurement": "binding", "setting": "[13]", "value": "yes"}, {"measurement": "binding", "setting": "[14]", "value": "yes"}, {"measurement": "binding", "setting": "[4]; 50 mM NaCl, 2 mM Tris, pH 7.5, 5 μM 1c, 26.4-fold emission increase at 1 equivalent", "value": "yes"}]}
